ChEMBL document CHEMBL5726056, “2-oxo-3,4-dihydroquinolin-6-yl sulphonamide CPDS and their use as plant growth regulators” (2019)

Columns and labels:
[1] = (§1) PP2C Activity Assay: HAB1 and PYL proteins were expressed and purified as described in Park et al. ((2009) Science 324(5930):1068-1071), with minor modifications. To obtain GST-HAB1, the HAB1 cDNA was cloned into pGex-2T. Expression was conducted in BL21[DE3]pLysS host cells. Transformed cells were pre-cultured overnight, transferred to LB medium and cultured at 30° C. to culture A600 of ¿0.5.The culture was then cooled on ice and MnCl2 added to 4 mM and IPTG added to 0.3 mM. After 16 hours incubation at 15° C., cells were harvested and recombinant proteins were purified on glutathione agarose as described in Park et al. To obtain 6×His-PYL receptor fusion proteins, expression constructs previously described by Okamoto et al. 2013, (PNAS 110(29): 12132-12137) were used. ABA receptors were expressed and purified as described above.For the values shown in Table B5, PP2C activity assays using recombinant receptors and PP2Cs were carried out as follows: purified proteins were pre-incubated in 160 μl assay buffer containing 100 mM Tris-HCl-pH7.9, 100 mM NaCl, 3 μg bovine serum albumin, 0.1% 2-mercaptoethanol, 1 mM MnCl2 with ABA or agonists (compounds of the present invention) for 30 minutes at room temperature. […]
[2] = as §1; remark: listed apart in the source

Structure (SMILES): CCN1C(=O)CC(C)c2cc(NS(=O)(=O)Cc3ccc(C4CC4)cc3)ccc21 (configuration not stated)
- IC50 [1]: 200 nM
- IC50 [2]: 101 nM
